The subject of test [1] is inflammation induced in the ear by picryl chloride. As to the kind of experiment: Picryl chloride-induced ear swelling. The format is in vivo, BALB/C mice. How it is done:
Female BALB/C mice (Simmons Laboratories), 7 weeks old, were housed at 23-25° C. in groups of no more than 5 per cage [28 cm (L)×18 cm (W)×13 cm (H)]. They were allowed to acclimatize to standard lighting and temperature conditions for at least 1 week, with food and water available ad lib, before the experiment began. Five to ten animals were randomly assigned to each treatment group each test day, and all experiments were repeated at least twice to confirm reproducibility. To reduce error due to slight differences in responses to the irritant of animals from different shipments, tests of each agent were performed as separate experiments in which experimental and control animals were drawn from the same shipment.
In the experiments each animal was anesthetized with 1 mg of pentobarbital sodium solution (50 mg/kg, Nembutal, Abbott Laboratories, Abbott park, Ill.). Baseline ear thickness was measured for both ears with a spring-loaded micrometer (Swiss Precision Instruments, Los Angeles, Calif.). Ear thickness was expressed in units of 10^−3 cm; the average thickness of unstimulated ears was approximately 25-30×10^−3 cm. After baseline measurements were taken, one of six solutions was injected IP. Control animals received 0.2 ml of sterile saline, and experimental animals received Ac-α-MSH (11-13)-NH2, i.e., Ac-Lys-Pro-Val-NH2), Ac[D-Lys^11] α-MSH (11-13)-NH2, Ac[D-Pro^12] α-MSH (11-13)-NH2, Ac[D-Val^13] α-MSH (11-13)-NH2 or Ac-[D-Lys^11, D-Val^13] α-MSH (11-13)-NH2 in the same volume of saline. […] The doses of the tripeptides were 10 μg ([…]), 20 μg ([…]), 40 μg (1.04×10^−7 M), and 80 μg (2.08×10^−7 M). Immediately after saline or α-MSH injection, a micropipette was used to coat both sides of each ear with 10 μl (40 μl per mouse) of a 0.5% picryl chloride (Polysciences, Warrington, Pa.) solution in acetone.
Ear thickness was remeasured 3 and 6 h after picryl chloride application. Swelling was determined by subtracting baseline thickness from the measurements for each ear at 3 and 6 h. The differences for both ears were then averaged for the final analysis.
Repeated-measure ANOVA techniques were used to determine if there was an overall difference among group data for each peptide tested in separate experiments. In those cases in which the ANOVA yielded significant results, Dunnett's test was then used to compare the effects of peptide doses with control (saline) data for each of the two time periods, 3 and 6 h.

For test [2] the following is noted: kind of activity not given; cited from earlier work.
The test system of another test is cAMP. As to the kind of experiment: cAMP accumulation in N9 cells. The format is cell-based, murine. As to conditions: resting cells and cells incubated with LPS+IFN-γ. The method, then: cAMP accumulation in N9 cells was measured as previously described. Briefly, cells in six-well plates were co-incubated at 37° C. with (1) medium; (2) forskolin (100 μM); (3) LPS (10 ng/mL)+IFN-γ (1 U/mL); (4) α-MSH (1-13) or α-MSH (11-13) (1, 10, 50 μM); (5) LPS+IFN-γ and either α-MSN (1-13) or α-MSH (11-13) (10 μM). Reactions were stopped after 3 min by aspirating supernatants, immediately adding 1 mL ethanol at −20° C. and freezing. cAMP content in the ethanol-soluble fraction was measured using an enzyme immunoassay kit (Amersham).

The test system of another test is TNF-α and iNOS mRNA. Briefly: Northern blot of TNF-α and iNOS mRNA in activated microglia. In kind it is cell-based, murine. The method, then:
Total cellular RNA was extracted from 10^6 adherent microglial cells plated in six-well tissue culture plates (Corning). Electrophoresis of RNA samples (10 μg/lane) was performed in 1% agarose/2.2 M formaldehyde gels and the gels subsequently blotted onto nylon filters by capillary action and baked for 2 h before prehybridization. The cDNA fragments encoding murine TNF-α and mouse macrophage iNOS were ^32P-labeled using the Ready-To-Go DNA Labeling Kit (Pharmacia, Uppsala, Sweden) before hybridization of nylon filters and autoradiography. Blots were subsequently rehybridized with human glyceraldehyde-3-phosphate dehydrogenase (G-3-PDH) cDNA probe as an internal control (Clontech Laboratories, Inc., Palo Alto, Calif.).

For the next test, the system named is IL-6. As to the kind of experiment: IL-6 production by activated N9 microglia. In kind it is cell-based, murine. As to conditions: microglia stimulated with LPS+IFN-γ for 24 hr, micromolar concentrations. How it is done:
(§1) The N9 clone of murine microglial cells was obtained by immortalization of embryonic brain cultures with the 3RV retrovirus carrying an activated v-myconcogene. N9 cells were cultured in T-75-cm^2 culture flasks (Corning, Cambridge, Mass.) and maintained at 37° C. in a humidified incubator under 5% CO2 atmosphere in RPMI 1640 supplemented with 2 mM L-glutamine, 50 U/mL penicillin G, 50 μg/mL streptomycin sulfate (GIBCO-BBL, Paisley, UK), and 10% heat-inactivated fetal bovine serum (FBS, Hyclone Lab, Inc., Logan, Utah) until experiments were performed. Cells were used between the first and the tenth passage.
(§2) Sub-confluent microglial cells were washed twice with phosphate-buffered saline (PBS) and incubated with trypsin 0.025% and ethylenediaminetetraacetate (EDTA) 0.02% without calcium and magnesium for 3 min. at 37° C. to detach the cells from the culture flask. Cells were then resuspended in medium and incubated in 24-well tissue-culture plates at a concentration of 2×10^5 cells/mL for 16 h in a humidified incubator (37° C., 5% CO2). Growth medium was removed and cell monolayers were stimulated with 10 ng/mL lipopolysaccharide (LPS, from Escherichia coli 055:B5, Sigma Chemical Co., St. Louis, Mo.) plus 1 U/ml, murine IFN-γ (Sigma). To test effects of melanocortin peptides, concentrations (1, 10, 25, 50 and 100 μM) of α-MSH (1-13), α-MSH (11-13), and ACTH (1-24) (Sigma) were dissolved in medium and added to wells 10 min before treatment with LPS+IFN-γ. […] Viability of cells was assessed by trypan blue exclusion for each experimental condition; it was consistently >98%. […]
(§3) TNF-α bioactivity was measured in supernatants of cell cultures by standard cytotoxicity assay using L929 cells and recombinant human TNF-α (Sigma) as standard. […] IL-6 was measured using a commercial murine enzyme-linked immunosorbent assay (ELISA: RPN 2714, Amersham, Little Chalfont, UK).
(§4) Effects of melanocortin peptides on cytokine and NO production were evaluated by repeated measures analysis of variance followed by Dunnet's test for specific comparisons. […]

A further test deals with human neutrophils. Briefly: C. albicans killing by human neutrophils. In kind it is cell-based. As to conditions: 2 hours at 37° C., vs. medium. How it is done:
Venous blood (20 ml) from healthy volunteers was anticoagulated with heparin. Neutrophils were isolated using dextran sedimentation and Ficoll-Hypaque (Sigma Chemical Co., St. Louis, Mi., USA) centrifugation. Erythrocytes were lysed via hypotonic shock. Neutrophils represented at least 97% of the cell suspension. Cell viability, estimated by trypan blue exclusion, was >98%. Neutrophils were suspended to a final concentration in HBSS. C. albicans (1×10^6) were opsonized with human AB serum in a shaking water bath for 30 minutes at 37° C. Organisms were then incubated with neutrophils in medium or in medium with α-MSH (1-13) or α-MSH (11-13) in concentrations of 10^−15 M to 10^−4 M in a shaking water bath for 2 hours at 37° C. After incubation, the culture tubes were placed on ice to stop growth and extracellular organisms were washed twice with centrifugation at 1000×g at 4° C. A 2.5% sodium desoxycholoate solution was added to obtain a suspension of 10^6 cells/ml. Two 1/100 serial dilutions in HBSS were made to obtain a final suspension of 100 cells/ml. Aliquots of 1 ml were dispensed on blood agar plates and incubated for 48 hours at 37° C. Colony forming units (CFUs) were counted at the end of the incubation period. Experiments were run in triplicate and repeated using blood from 5 different donors.

The subject of another test is NO2^−. Briefly: Nitrite (NO) production by activated N9 microglia. The conditions noted are these: microglia stimulated with LPS+IFN-γ for 24 hr, micromolar concentrations. The format is cell-based, murine. How it is done:
as §1, §2
NO is rapidly oxidized to nitrite (NO2) in culture medium, and nitrite concentration is an indicator of NO production. […] Samples were incubated at room temperature for 10 min and absorbency was measured at 540 nm with the use of a microplate reader. Nitrite concentrations were calculated using a sodium nitrite standard curve.
as §4

Test [3] has as its system C. albicans. Briefly: C. albicans colony forming units (candidacidal activity). In kind it is cell-based. How it is done:
C. albicans (1×10^6/ml in HBSS) was incubated in the presence or absence or α-MSH (1-13) or α-MSH (11-13) at concentrations in the range of 10^−15 M to 10^−6 M for 2 hours at 37° C. Cells were then washed in cold distilled water and diluted with HBSS to a concentration of 100 organisms/ml. One-ml aliquots were dispensed on blood agar plates and incubated for 48 hours at 37° C. Organism viability was estimated from the number of colonies formed. In subsequent experiments using familiar procedures we compared activity of α-MSH (4-10), α-MSH (6-13), α-MSH (11-13), ACTH (1-39), (18-39) and fluconazole, the latter an established antifungal agent. Melanocortin peptides and fluconazole were tested in concentrations of 10^−6 M to 10^−4 M. There were at least six replicates for each concentration of peptide.

The test system of a further test is TNF-α. As to the kind of experiment: TNF-α production by activated N9 microglia. The format is cell-based, murine. As to conditions: microglia stimulated with LPS+IFN-γ for 24 hr, micromolar concentrations. How it is done: as §1, §2, §3, §4
For test [4], the system named is C. albicans. Briefly: Horse serum-induced germ tube formation of C. albicans. In kind it is cell-based. The conditions noted are these: 10^−6M, 60 minutes at 37° C. The method, then:
C. albicans from stationary phase cultures were washed twice with distilled water and suspended in HBSS to a final concentration of 2×10^6/ml. Hyphal growth was induced by addition of 10% inactivated horse serum (GIBCO/BRL, Great Britain) to yeast incubated for 45 minutes at 37° C. with continuous shaking. Horse serum was removed by washing cells twice with HBSS and incubation was continued for 60 minutes at 37° C. in the presence of α-MSH (1-13), α-MSH (6-13) or α-MSH (11-13) at a concentration of 10^−6M with continuous shaking. The percentage of filamentous cells was evaluated under a light microscope with the aid of hemocytometer. Experiments were run in triplicate and at least 200 cells were scored. Photomicrographs were taken with an MC100 camera attached to an Axioskop Zeiss microscope.

The subject of the next test is fever. The conditions noted are these: relative to parent peptide or to the 11-13 sequence; cited from earlier work.

Entries after “also recorded” stand apart in the source; their conditions may differ.

On to Ac-[D-Lys^11]α-MSH (11-13)-NH2, for which the “% Inhibition of swelling” value in test [1] (10 μg IP, 3 h) was 23%; in test [1] (10 μg IP, 6 h) it was 17%; in test [1] (20 μg IP, 3 h) it was 25%; in [1] (20 μg IP, 6 h) it was 16%; in [1] (40 μg IP, 3 h), 35%; in test [1] (40 μg IP, 6 h), 37%. For the same substance, the “% Inhibition of swelling” value in test [1] (80 μg IP, 3 h) was determined as 34%; in test [1] (80 μg IP, 6 h), 29%. Further, the “overall effect on ear inflammation (ANOVA)” value in test [1] (10-80 μg IP, 3 and 6 h) is recorded as “significantly reduced inflammation”. For the same substance, the “general potency relative to L-form tripeptide” value in [2] was “same general potency as the L-form of the tripeptide α-MSH (11-13)”.

“Lys-Pro-Val (KPV; Designed polypeptide with anti-inflammatory, anti-bacterial, anti-fungal and antipyretic properties.) [α-MSH (11-13), C-terminal tripeptide KPV of α-MSH]”: the cAMP accumulation entry in the test on cAMP is given as “increased cAMP accumlation”. Besides, the “mRNA for TNF-α and iNOS (Northern blot)” value in the test on TNF-α and iNOS mRNA is “inhibition of mRNA transaction for TNF-α and iNOS”. In addition, the “reduction of production of IL-6” value in the test on IL-6 is 50%. Besides, the “killing of C. albicans by human neutrophils” value in the test with human neutrophils is given as “enhanced the killing”. Besides, the “reduction of production of NO2^−” value with NO2^− is reported as 40%. Moreover, the “relative potency in reducing C. albicans viability” value in the test on C. albicans [3] (10^−4M melanocortin peptides) is listed as “the most effective”. Also, the “effect on C. albicans colony forming units (CFU)” value with C. albicans [3] (2 hours at 37° C., vs. control) is given as “greatly reduced; also recorded: significantly decreased C. albicans colony forming units; also recorded: inhibitory effect”. The “reduction of production of TNF-α” value in the test on TNF-α was found to be 45%. Also, in the test on C. albicans [4], the “reduction in the number of filamentous cells (inhibition of germination)” value was 54-58%.

For the substance [Nle^4, D-Phe^7]-α-MSH, in the test on fever, the antipyretic potency entry is “approximately ten times more potent than the parent peptide in reducing fever”.

The values above are taken from patent US6969590B2, “Use of a polypeptide for treatment of pruritus in animals” (Zengen, Inc., priority 2001, dated 2005).
